Measurements published in patent publication US12202805B2, “Process for preparing (5S)-{[2-(4-carboxyphenyl)ethyl] |2-(2-{|3-chloro-4'-(trifluoromethyl)biphenyl-4-yl]methoxy}phenyl)ethyl]aminol-5,6,7,8-tetrahydroquinoline-2-carboxylic acid and its crystalline forms for use as pharmaceutically active compound” (Bayer Aktiengesellschaft, priority 2021, dated 2025).
“And” between values parts separate entries of the source, which are not always exact repeats. Equal entries are not always repeated.

System: thromboxane A2 challenged PAH-minipig
Experiment: Haemodynamics in the anesthetized thromboxane challenged minipig, intratracheal dry powder (PAP, BP)
Type: in vivo, Göttingen Minipigs
Conditions: 375 μg/kg i.t.
Experimental: Healthy Göttingen Minipigs® Ellegaard (Ellegaard, Denmark) of both sexes and having a weight of 2-6 kg were used. The animals were sedated by i.m. administration of about 25 mg/kg ketamine and about 10 mg/kg azaperone. Anaesthesia was initiated by i.v. administration of about 2 mg/kg ketamine and about 0.3 mg/kg midazolam. Maintenance of anaesthesia was by i.v. administration of about 7.5-30 mg/kg/h ketamine and about 1-4 mg/kg/h midazolam (rate of infusion 1-4 ml/kg/h) and about 150 μg/kg/h pancuronium bromide (for example Pancuronium-Actavis). After intubation, the animals were ventilated by the ventilator at a constant respiratory volume (10-12 ml/kg, 35 breaths/min; Avea®, Viasys Healthcare, USA, or Engström Carestation, GE Healthcare, Freiburg, Germany) such that an end-tidal CO2 concentration of about 5% was achieved. Ventilation was performed with room air, enriched with about 40% oxygen (normoxia). For the measurement of the haemodynamic parameters such as pulmonary arterial pressure (PAP), blood pressure (BP) and heart rate (HR), catheters were inserted into the carotid artery to measure the blood pressure, and a Swan-Ganz® catheter was introduced in a flow-directed manner via the jugular vein into the pulmonary artery. The haemodynamic signals were recorded and evaluated by means of pressure transducers (Combitransducer, B. Braun, Melsungen, Germany)/amplifiers and Ponemah® as data acquisition software.
As reference pure Lactose vehicle was applied in the beginning of each experiment.

For `O.O=C(O)c1ccc(CCN(CCc2ccccc2OCc2ccc(-c3ccc(C(F)(F)F)cc3)cc2Cl)[C@H]2CCCc3nc(C(=O)O)ccc32)cc1.O=C(O)c1ccc(CCN(CCc2ccccc2OCc2ccc(-c3ccc(C(F)(F)F)cc3)cc2Cl)[C@H]2CCCc3nc(C(=O)O)ccc32)cc1` [example 6a, (5S)—{[2-(4-Carboxyphenyl)ethyl][2-(2-{[3-chloro-4′-(trifluoromethyl)biphenyl-4-yl]methoxy}phenyl)-ethyl]amino}-5,6,7,8-tetrahydroquinoline-2-carboxylic acid semihydrate], the “PAP, % changes vs. prevalues” (time 160 min) was 59.9% and 77.1% and 73.1%, the “BP (mean)” value (time 170 min) was 95 mmHg and 79 mmHg and the “BP, % changes vs. prevalues” (time 170 min) was 95.6% and 99.7% and 107.4%. For the same molecule, the “PAP(mean)” value (time 170 min) was 24.0 mmHg and 32.4 mmHg and 29.9 mmHg, the “PAP, % changes vs. prevalues” (time 170 min) was 58.6% and 76.7% and 72.3% and the “BP (mean)” value (time 180 min) was 94 mmHg and 79 mmHg. For the same molecule, the “BP, % changes vs. prevalues” (time 180 min) was 94.6% and 99.7% and 106.3%, the “PAP(mean)” value (time 180 min) was 23.7 mmHg and 31.9 mmHg and 29.7 mmHg and the “PAP, % changes vs. prevalues” (time 180 min) was 58.0% and 75.4% and 71.8%. The “BP (mean)” value (time 190 min) was 94 mmHg and 85 mmHg and 93 mmHg, the “BP, % changes vs. prevalues” (time 190 min) was 94.6% and 108.5% and 105.2% and the “PAP(mean)” value (time 190 min) was 24.4 mmHg and 32.4 mmHg and 29.2 mmHg. The “PAP, % changes vs. prevalues” (time 190 min) was 59.5% and 78.4% and 70.7%, the “BP (mean)” value (time 200 min) was 92 mmHg and 85 mmHg and the “BP, % changes vs. prevalues” (time 200 min) was 92.6% and 107.3% and 104.0%. The “PAP(mean)” value (time 200 min) was 24.8 mmHg and 32.4 mmHg and 29.4 mmHg, the “PAP, % changes vs. prevalues” (time 200 min) was 60.5% and 76.8% and 71.1% and the “BP (mean)” value (time 210 min) was 90 mmHg and 81 mmHg and 91 mmHg. For the same molecule, the “BP, % changes vs. prevalues” (time 210 min) was 90.6% and 102.2% and 102.9%, the “PAP(mean)” value (time 210 min) was 24.8 mmHg and 31.9 mmHg and 29.2 mmHg and the “PAP, % changes vs. prevalues” (time 210 min) was 60.6% and 75.5% and 70.8%. The “BP (mean)” value (time 220 min) was 89 mmHg and 79 mmHg, the “BP, % changes vs. prevalues” (time 220 min) was 89.6% and 99.7% and 100.6% and the “PAP(mean)” value (time 220 min) was 24.7 mmHg and 31.7 mmHg and 29.1 mmHg. The “PAP, % changes vs. prevalues” (time 220 min) was 60.3% and 75.1% and 70.3%, the “BP (mean)” value (time 230 min) was 87 mmHg and 78 mmHg and 89 mmHg and the “BP, % changes vs. prevalues” (time 230 min) was 87.6% and 98.4% and 100.6%. For the same molecule, the “PAP(mean)” value (time 230 min) was 24.0 mmHg and 31.3 mmHg and 28.6 mmHg, the “PAP, % changes vs. prevalues” (time 230 min) was 58.7% and 74.1% and 69.1% and the “BP (mean)” value (time 240 min) was 87 mmHg and 77 mmHg. The “BP, % changes vs. prevalues” (time 240 min) was 87.6% and 97.2% and 98.4%, the “PAP(mean)” value (time 240 min) was 24.1 mmHg and 31.3 mmHg and 28.1 mmHg and the “PAP, % changes vs. prevalues” (time 240 min) was 58.9% and 74.2% and 68.0%. For the same molecule, the “BP (mean)” value (time 250 min) was 85 mmHg and 76 mmHg, the “BP, % changes vs. prevalues” (time 250 min) was 85.5% and 95.9% and 96.1% and the “PAP(mean)” value (time 250 min) was 24.2 mmHg and 30.7 mmHg and 28.1 mmHg. For the same molecule, the “PAP, % changes vs. prevalues” (time 250 min) was 59.0% and 72.7% and 67.9%, the “BP (mean)” value (time 260 min) was 85 mmHg and 76 mmHg and 84 mmHg and the “BP, % changes vs. prevalues” (time 260 min) was 85.5% and 95.9% and 95.0%. For the same molecule, the “PAP(mean)” value (time 260 min) was 24.1 mmHg and 30.6 mmHg and 28.1 mmHg, the “PAP, % changes vs. prevalues” (time 260 min) was 58.8% and 72.5% and 68.0% and the “BP (mean)” value (time 270 min) was 85 mmHg and 76 mmHg and 87 mmHg. For the same molecule, the “BP, % changes vs. prevalues” (time 270 min) was 85.5% and 95.9% and 98.4%, the “PAP(mean)” value (time 270 min) was 24.4 mmHg and 30.6 mmHg and 27.8 mmHg and the “PAP, % changes vs. prevalues” (time 270 min) was 59.6% and 72.4% and 67.3%. For the same molecule, the “BP (mean)” value (time 280 min) was 85 mmHg and 75 mmHg and 84 mmHg, the “BP, % changes vs. prevalues” (time 280 min) was 85.5% and 94.6% and 95.0% and the “PAP(mean)” value (time 280 min) was 24.3 mmHg and 30.7 mmHg and 28.0 mmHg. The “PAP, % changes vs. prevalues” (time 280 min) was 59.3% and 72.6% and 67.8%, the “BP (mean)” value (time 290 min) was 84 mmHg and 75 mmHg and 83 mmHg and the “BP, % changes vs. prevalues” (time 290 min) was 84.5% and 94.6% and 93.9%. The “PAP(mean)” value (time 290 min) was 24.1 mmHg and 30.7 mmHg and 27.6 mmHg, the “PAP, % changes vs. prevalues” (time 290 min) was 58.8% and 72.6% and 66.7% and the “BP (mean)” value (time 300 min) was 83 mmHg and 77 mmHg and 82 mmHg. For the same molecule, the “BP, % changes vs. prevalues” (time 300 min) was 83.5% and 97.2% and 92.7%, the “PAP(mean)” value (time 300 min) was 23.7 mmHg and 30.5 mmHg and 27.7 mmHg and the “PAP, % changes vs. prevalues” (time 300 min) was 57.9% and 72.2% and 67.1%.
